Several values for one entry are separate records, joined by “and”; a condition that tells them apart may be missing. Equal values may be shown once. Where a name gives a salt, the structure may show the parent alone.
| SMILES | melting point |
| --- | --- |
| OCc1ccncc1 [4-pyridinemethanol] | 54 °C |
| NC(=O)c1ccccc1Cc1ccccc1 [o-benzylbenzamide] | 165 °C |
| CCCCC(CC)COC(=O)CCCCC(=O)OCC(CC)CCCC (configuration not stated) [bis(2-ethylhexyl) adipate] | -67 °C |
| Cc1occc1C(=O)O [2-methyl-3-furoic acid] | 98 °C |
| CNC(=O)c1ccc(-c2ccccc2)cc1 [p-phenyl-n-methylbenzamide] | 86 °C |
| CC(=O)OC1=CC(c2ccccc2)c2ccccc21 (configuration not stated) [1-phenyl-1H-inden-3-yl acetate] | 56 °C |
| O=C(O)CCCCCCCCCCCCCCC(=O)O [Hexadecanedioic acid] | 125 °C |
| C=Cc1cccc(C)c1 [3-methylstyrene] | -82 °C |
| C/C=C\C#N [Z-crotononitrile] | -72.6 °C |
| CCOC(=O)C1c2ccccc2Oc2ccccc21 [ethyl xanthene-9-carboxylate] | 67 °C |
| OCCCCCCCCCCCCO [1,12-dodecanediol] | 83 °C |
| c1ccc2c(c1)OCCOCCOCCOCCOCCO2 [benzo-18-crown-6] | 44 °C |
| BrCCCBr [1,3-dibromopropane] | -34 °C |
| COc1ccc(C2=CCC3(C)C(CCC4C3CCC3(C)C(OC(C)=O)CCC43)C2)cc1 (configuration not stated) [3-(4-methoxyphenyl)androst-2-en-17-yl acetate] | 179 °C |
| Nc1ccccc1Br [o-bromoaniline] | 30 °C |
| CC(C)(C)OOC(=O)c1ccccc1 [tert-Butyl benzenecarboperoxoate] | 8 °C |
| ClC(Cl)(Cl)Cl [carbon tetrachloride] | -23 °C (4×) and -22.9 °C |
| Cc1ccccc1/C=C(\C#N)c1nc2ccccc2s1 [(E)-2-Benzothiazol-2-yl-3-o-tolyl-acrylonitrile] | 149 °C |
| OB(O)c1cccc(Br)c1 [3-bromobenzeneboronic acid] | 166 °C |
| CC(C)CC(C)(C)C [2,2,4-Trimethylpentane] | -107 °C |
| C1CCNC1 [Pyrrolidine] | -60 °C |
| c1cc(C2CNCCN2)cs1 (configuration not stated) [2-(3-thienyl)piperazine] | 98 °C |

| SMILES | melting point |
| --- | --- |
| BrCc1nc2ccccc2s1 [2-(bromomethyl)benzothiazole] | 48 °C |
| CS(=O)c1ccc(cc1)/C=C3c2ccc(F)cc2C(CC(=O)O)=C3C (configuration not stated) [sulindac] | 185 °C |
| CC(C)Br [2-bromopropane] | -89 °C |
| CC[C@@]1(O)C(=O)OCc2c1cc1n(c2=O)Cc2cc3ccccc3nc2-1 [Camptothecin] | 276 °C |
| COc1cccc(C(=O)O)c1 [3-methoxybenzoic acid] | 106 °C |
| C[C@@](Cc1ccc(O)c(O)c1)(NN)C(=O)O [Carbidopa] | 204 °C |
| COc1ccc(/C=C(\Oc2ccc(Cl)cc2)c2nc3ccccc3s2)cc1 | 138 °C |
| O=c1cc(-c2ccccc2)oc2cccc(O)c12 [5-hydroxyflavone] | 158 °C |
| NC(=O)c1cccc([N+](=O)[O-])c1 [m-nitrobenzamide] | 143 °C |
| NCC(CC(=O)O)c1ccc(Cl)cc1 (configuration not stated) [baclofen] | 208 °C |
| [O-][n+]1c(Cl)cccc1Cl [2,6-dichloropyridine n-oxide] | 138 °C |
| CCOC(=O)C(=O)OCC [diethyl oxalate] | -40 °C |
| CCC(C)=O [2-butanone] | -87 °C |
| CC(=O)CC(=O)Nc1ccccc1 [3-Oxo-N-phenylbutanamide] | 86 °C |
| CCC(O)C(C)(C)C (configuration not stated) [2,2-dimethyl-3-pentanol] | 5 °C |
| CCOc1ccccc1 [phenetole] | -30 °C |
| O=C(c1ccccc1)c1c(F)c(F)c(F)c(F)c1F [(Pentafluorophenyl)(phenyl)methanone] | 37.5 °C |
| CN(C)c1ccc(/C=C(/C#N)c2nc(-c3ccc(Cl)cc3)cs2)cc1 | 134 °C |
| C[C@]12CC[C@H](O)CC1=CC[C@@H]1[C@@H]2CC[C@]2(C)C(=O)CC[C@@H]12 [prasterone] | 140 °C |
| C=C [ethylene] | -169 °C |
| Cc1ccc(C(=O)c2nn(-c3ccccc3)/c(=N\N=C\c3ccco3)s2)cc1 | 114 °C |
| OCC(O)COc1ccc(Cl)cc1 (configuration not stated) [3-(4-chlorophenoxy)-1,2-propanediol] | 80 °C |

| SMILES | melting point |
| --- | --- |
| O=C(O)c1ccc(C(F)(F)F)nc1Cl [2-chloro-6-(trifluoromethyl)nicotinic acid] | 119 °C |
| Clc1cccc2ccccc12 [1-chloronaphthalene] | -20 °C |
| Cc1ccccc1C(=O)O [2-Methylbenzoic acid] | 108 °C |
| NC(=O)c1ccccc1O [Salicylamide] | 140 °C |
| CCN(CC)C(=O)Nc1ccc(OCC(O)CNC(C)(C)C)c(C(C)=O)c1 (configuration not stated) [celiprolol] | 110 °C |
| CN=C=O [Isocyanatomethane] | -80 °C |
| CN[C@@H](C)[C@@H](O)c1ccccc1 [Pseudoephedrine] | 118 °C |
| CCOC(=O)/C=C/C(=O)OCC [diethyl_fumarate] | 2 °C |
| COc1ccccc1-c1nnn[nH]1 [5-(2-methoxyphenyl)-1h-tetrazole] | 155 °C |
| C[C@@H](O)[C@H](N)C(=O)O [L-Threonine] | 256 °C |
| COC(=O)CC#N [methyl cyanoacetate] | -23 °C |
| Clc1cccc2ccccc12 [1-Chloronaphthalene] | -21.5 °C |
| c1ccc2cc3cc4ccccc4cc3cc2c1 [2,3-Benzanthracene, Naphthacene] | 341 °C |
| NC(=O)c1ccc(F)c(F)c1 [3,4-difluorobenzamide] | 133 °C |
| O=C(O)COc1ccccc1 [phenoxyacetic_acid] | 100 °C |
| O=C4\C=C3/[C@]([C@H]2CC[C@]1([C@@H](CC[C@@]1(O)C)[C@@H]2CC3)C)(C)CC4 [methyltestosterone] | 163 °C |
| ClCc1ccc(Cl)cc1 [4-chlorobenzyl_chloride] | 30 °C |
| CC(=O)Nc1ccc(O)cc1 [paracetamol] | 169 °C |
| CC(C)c1ccc(O)cc1 [4-isopropylphenol] | 60 °C |
| CCCCCCCCCC(=O)O [Decanoic acid] | 31 °C |
| CCOC(=O)C1=CN=NC1C (configuration not stated) [ethyl 3-methyl-1H-pyrazole-4-carboxylate] | 137 °C |
| CCOC(=O)/C=CC(=O)OCC [diethyl maleate] | -11 °C |

| SMILES | melting point |
| --- | --- |
| N#Cc1ccncc1Cl [3-chloro-4-cyanopyridine] | 73 °C |
| O=C1OC(c2ccc(O)cc2)(c2ccc(O)cc2)c2ccccc21 [phenolphthalein] | 260 °C |
| CC(C(=O)O)c1ccc(-c2ccccc2)c(F)c1 (configuration not stated) [flurbiprofen] | 111 °C (2×) and 115 °C and 110 °C |
| CC(CCC(=O)O)C1CCC2C3C(O)CC4CC(O)CCC4(C)C3CC(=O)C12C (configuration not stated) [3,7-dihydroxy-12-oxocholan-24-oic acid] | 221 °C |
| OB(O)c1ccc(OCc2ccccc2)c(F)c1 [4-benzyloxy-3-fluorobenzeneboronic acid] | 130 °C |
| Cc1cc(C)c(Br)c(C)c1Br [2,4-dibromomesitylene] | 60 °C |
| CCCCC1C(=O)N(c2ccccc2)N(c2ccccc2)C1=O [phenylbutazone] | 105 °C |
| CC1CCC(C(C)C)C(OC(=O)C2(C)CCC(C)C2(C)C)C1 (configuration not stated) | 50 °C |
| OB(O)c1cc(F)c(F)c(F)c1F [2,3,4,5-tetrafluorobenzeneboronic acid] | 253 °C |
| c1ccc2c(c1)Cc1ccccc1O2 [9H-Xanthene] | 101 °C |
| CC[C@@H]1CCC[C@@H]1CC [cis-1,2-diethylcyclopentane] | -118 °C |
| c1ccoc1 [furan] | -85 °C |
| COC(=O)c1ccc(OC)c(OC)c1 [methyl_3,4-dimethoxybenzoate] | 60 °C |
| COC(=O)c1ccc(N)cc1 [methyl 4-aminobenzoate] | 112 °C |
| C=C1/C(=N/Nc2cc(Cl)c(Cl)cc2Cl)C(=O)N(C)C(=O)N1C | 244 °C |
| O=C(O)[C@@H]1CCCN1 [L-Proline] | 228 °C |
| O=C(Cl)C(Cl)(Cl)Cl [trichloroacetyl chloride] | -56.9 °C and -57 °C |
| O=C(NC(Cc1ccccc1)C(=O)O)OCc1ccccc1[N+](=O)[O-] (configuration not stated) [N-{[(2-nitrobenzyl)oxy]carbonyl}phenylalanine] | 141 °C |
| Nc1ccccc1N [Benzene-1,2-diamine] | 102 °C |
| c1ccc2[nH]ccc2c1 [indole] | 52 °C |
| CCCC=CB(O)O [1-pentenylboronic acid] | 80 °C |
| C1CCCC1 [cyclopentane] | -94 °C (2×) and -93.9 °C |

| SMILES | melting point |
| --- | --- |
| CC(C)C#N [isobutyronitrile] | -72 °C |
| COc1ccc(N/N=C(\C#N)c2nc(-c3ccccc3)cs2)cc1 | 151 °C |
| CCCCCCCCCCCCCCC [N-pentadecane] | 10 °C |
| COC(=O)c1ccc(O)cc1 [Methyl 4-hydroxybenzoate] | 127 °C |
| Oc1ccc(OCc2ccccc2)cc1 [Agerite] | 120 °C |
| NC1CCCC1 [cyclopentylamine] | -85 °C |
| COC(=O)c1ccccc1 [methyl_benzoate] | -12 °C |
| C=COC(C)=O [vinyl acetate] | -100 °C |
| NC(=O)C1=C(CCc2ccccc2)CCCC1 [2-(2-phenylethyl)cyclohex-1-ene-1-carboxamide] | 113 °C |
| CCC(C)Br (configuration not stated) [2-bromobutane] | -112 °C |
| Cc1ccnc(NS(=O)(=O)c2ccc(N)cc2)n1 [sulfamerazine (polymorph 1)] | 235 °C |
| CC(=O)c1ccc(Br)cc1 [4'-bromoacetophenone] | 51 °C |
| COc1ccc(/C=C/c2ccccc2)cc1 [4-methoxystilbene] | 137 °C |
| O=C(O)c1cccc(Br)c1 [m-bromobenzoic_acid] | 157 °C |
| CC(=O)N[C@@H](CCC(=O)O)C(=O)O [N-acetyl-l-glutamic acid] | 197 °C |
| CCCCCCCCCC(=O)O [decanoic acid] | 31 °C |
| CC(C)OC(C)C [diisopropyl_ether] | -86 °C |
| O=C(O)c1cccnc1 [Nicotinic acid] | 237 °C |
| CCOC(=O)c1ccc(N)cc1 [ethyl 4-aminobenzoate] | 90 °C |

From the Bradley open melting point set (2014)
